SMILES	melting point [°C]
Cc1cc(-c2cccc(C3=Nc4cc(Cl)c(Cl)cc4NC(=O)C3)c2)c(C)cn1 [Example 137, 7,8-Dichloro-4-[3-(2,5-dimethyl-pyridin-4-yl)-phenyl]-1,3-dihydro-benzo[b][1,4]diazepin-2-one]	208
CCOc1cc2c(cc1C(F)(F)F)NC(=O)CC(c1cccc(-c3cc(C)ncc3C)c1)=N2 [Example 139, 4-[3-(2,5-Dimethyl-pyridin-4-yl)-phenyl]-7-ethoxy-8-trifluoromethyl-1,3-dihydro-benzo[b][1,4]diazepin-2-one]	189
Cc1cc2c(cc1Cl)NC(=O)CC(c1cccc(-c3ccnc(C)c3C)c1)=N2 [Example 140, 8-Chloro-4-[3-(2,3-dimethyl-pyridin-4-yl)-phenyl]-7-methyl-1,3-dihydro-benzo[b][1,4]diazepin-2-one]	224
Cc1cc2c(cc1C(F)(F)F)NC(=O)CC(c1cccc(-c3ccnc(C)c3C)c1)=N2 [Example 141, 4-[3-(2,3-Dimethyl-pyridin-4-yl)-phenyl]-7-methyl-8-trifluoromethyl-1,3-dihydro benzo[b][1,4]diazepin-2-one]	222
Cc1nccc(-c2cccc(C3=Nc4ccc(C(F)(F)F)cc4NC(=O)C3)c2)c1C [Example 142, 4-[3-(2,3-Dimethyl-pyridin-4-yl)-phenyl]-8-trifluoromethyl-1,3-dihydro benzo[b][1,4]diazepin-2-one]	200
Cc1nccc(-c2cccc(C3=Nc4cc(Cl)c(C(F)(F)F)cc4NC(=O)C3)c2)c1C [Example 143, 7-Chloro-4-[3-(2,3-dimethyl-pyridin-4-yl)-phenyl]-8-trifluoromethyl-1,3-dihydro benzo[b][1,4]diazepin-2-one]	212
Cc1nccc(-c2cccc(C3=Nc4cc(Cl)c(Cl)cc4NC(=O)C3)c2)c1C [Example 144, 7,8-Dichloro-4-[3-(2,3-dimethyl-pyridin-4-yl)-phenyl]-1,3-dihydro-benzo[b][1,4]diazepin-2-one]	219
Cc1nccc(-c2cccc(C3=Nc4cc(OCC(F)(F)F)c(C(F)(F)F)cc4NC(=O)C3)c2)c1C [Example 145, 4-[3-(2,3-Dimethyl-pyridin-4-yl)-phenyl]-7-(2,2,2-trifluoro-ethoxy)-8-trifluoromethyl-1,3-dihydro-benzo[b][1,4]diazepin-2-one]	222
CCOc1cc2c(cc1C(F)(F)F)NC(=O)CC(c1cccc(-c3ccnc(C)c3C)c1)=N2 [Example 146, 4-[3-(2,3-Dimethyl-pyridin-4-yl)-phenyl]-7-ethoxy-8-trifluoromethyl-1,3-dihydro-benzo[b][1,4]diazepin-2-one]	217
CCc1cnc(C)cc1-c1cccc(C2=Nc3cc(C)c(C(F)(F)F)cc3NC(=O)C2)c1 [Example 148, 4-[3-(5-Ethyl-2-methyl-pyridin-4-yl)-phenyl]-7-methyl-8-trifluoromethyl-1,3-dihydro benzo[b][1,4]diazepin-2-one]	182
CCc1cnc(C)cc1-c1cccc(C2=Nc3ccc(C(F)(F)F)cc3NC(=O)C2)c1 [Example 149, 4-[3-(5-Ethyl-2-methyl-pyridin-4-yl)-phenyl]-8-trifluoromethyl-1,3-dihydro benzo[b][1,4]diazepin-2-one]	183
CCc1cnc(C)cc1-c1cccc(C2=Nc3cc(Cl)c(Cl)cc3NC(=O)C2)c1 [Example 150, 7,8-Dichloro-4-[3-(5-ethyl-2-methyl-pyridin-4-yl)-phenyl]-1,3-dihydro-benzo[b][1,4]diazepin-2-one]	191
CCc1cnc(C)cc1-c1cccc(C2=Nc3cc(OCC(F)(F)F)c(C(F)(F)F)cc3NC(=O)C2)c1 [Example 151, 4-[3-(5-ethyl-2-methyl-pyridin-4-yl)-phenyl]-7-(2,2,2-trifluoro-ethoxy)-8-trifluoromethyl-1,3-dihydro-benzo[b][1,4]diazepin-2-one]	169
CCOc1cc2c(cc1C(F)(F)F)NC(=O)CC(c1cccc(-c3cc(C)ncc3CC)c1)=N2 [Example 152, 4-[3-(5-Ethyl-2-methyl-pyridin-4-yl)-phenyl]-7-ethoxy-8-trifluoromethyl-1,3-dihydro-benzo[b][1,4]diazepin-2-one]	191
CCc1cc(-c2cccc(C3=Nc4cc(C)c(Cl)cc4NC(=O)C3)c2)ccn1 [Example 153, 8-Chloro-4-[3-(2-ethyl-pyridin-4-yl)-phenyl]-7-methyl-1,3-dihydro-benzo[b][1,4]diazepin-2-one]	195
CCc1cc(-c2cccc(C3=Nc4ccc(C(F)(F)F)cc4NC(=O)C3)c2)ccn1 [Example 155, 4-[3-(2-Ethyl-pyridin-4-yl)-phenyl]-8-trifluoromethyl-1,3-dihydro benzo[b][1,4]diazepin-2-one]	208
CCc1cc(-c2cccc(C3=Nc4cc(Cl)c(C(F)(F)F)cc4NC(=O)C3)c2)ccn1 [Example 156, 7-Chloro-4-[3-(2-ethyl-pyridin-4-yl)-phenyl]-8-trifluoromethyl-1,3-dihydro benzo[b][1,4]diazepin-2-one]	217
CCc1cc(-c2cccc(C3=Nc4cc(Cl)c(Cl)cc4NC(=O)C3)c2)ccn1 [Example 157, 7,8-Dichloro-4-[3-(2-ethyl-pyridin-4-yl)-phenyl]-1,3-dihydro-benzo[b][1,4]diazepin-2-one]	216
CCc1cc(-c2cccc(C3=Nc4cc(OCC(F)(F)F)c(C(F)(F)F)cc4NC(=O)C3)c2)ccn1 [Example 158, 4-[3-(2-Ethyl-pyridin-4-yl)-phenyl]-7-(2,2,2-trifluoro-ethoxy)-8-trifluoromethyl-1,3-dihydro-benzo[b][1,4]diazepin-2-one]	232
CCOc1cc2c(cc1C(F)(F)F)NC(=O)CC(c1cccc(-c3ccnc(CC)c3)c1)=N2 [Example 159, 4-[3-(2-Ethyl-pyridin-4-yl)-phenyl]-7-ethoxy-8-trifluoromethyl-1,3-dihydro-benzo[b][1,4]diazepin-2-one]	244
Cc1cc2c(cc1Cl)NC(=O)CC(c1cccc(-c3ccc(C4CC4)nc3)c1)=N2 [Example 161, 8-Chloro-4-[3-(6-cyclopropyl-pyridin-3-yl)-phenyl]-7-methyl-1,3-dihydro-benzo[b][1,4]diazepin-2-one]	198 to 199
CCOc1ccc2c(c1)N=C(c1cccc(-c3cccnc3)c1)CC(=O)N2 [Example 162, 7-Ethoxy-4-(3-pyridin-3-yl-phenyl)-1,3-dihydro-benzo[b][1,4]diazepin-2-one]	166 to 169
CCOc1ccc2c(c1)N=C(c1cccc(-c3ccncc3)c1)CC(=O)N2 [Example 163, 7-Ethoxy-4-(3-pyridin-4-yl-phenyl)-1,3-dihydro-benzo[b][1,4]diazepin-2-one]	180 to 185
O=C1CC(c2cccc(-c3ccccn3)c2)=Nc2ccc(C#Cc3ccccc3)cc2N1 [Example 164, 8-Phenylethynyl-4-(3-pyridin-2-yl-phenyl)-1,3-dihydro-benzo[b][1,4]diazepin-2-one]	242
O=C1CC(c2cccc(-c3ccccn3)c2)=Nc2ccc(C#Cc3ccc(F)cc3)cc2N1 [Example 165, 8-(4-Fluoro-phenylethynyl)-4-(3-pyridin-2-yl-phenyl)-1,3-dihydro-benzo[b][1,4]diazepin-2-one]	249

From US6949542B2, “Dihydro-benzo[b][1,4]diazepin-2-one derivatives” (Hoffman-La Roche Inc., priority 2002, dated 2005)
